Data reported in PMC8617976, “Inhibitory Potential of New Phenolic Hydrazide-Hydrazones with a Decoy Substrate Fragment towards Laccase from a Phytopathogenic Fungus: SAR and Molecular Docking Studies” (International Journal of Molecular Sciences, 2021).
pKi: −log10 of the molar value.

Legend:
[1] = molecular target: T1, laccase from Trametes versicolor; assay: syringaldazine oxidation at […] nm, Lineweaver-Burk; assay type: biochemical; settings: McIlvaine buffer pH 5.3, 25 °C, 30 min preincubation, methanol co-solvent, printed as not active up to 1000 µM, type not determined
T1 construct: gene LCC2; PDB 1GYC (laccase 2) used for docking only

[2] = molecular target: T1, laccase from Trametes versicolor; assay: syringaldazine oxidation at […] nm, Lineweaver-Burk; assay type: biochemical; settings: McIlvaine buffer pH 5.3, 25 °C, 30 min preincubation, methanol co-solvent
[3] = mixed type, non-competitive component

CC(=O)NN=Cc1cc(C)cc(C(C)(C)C)c1O (mixture of isomers) [3a, (E/Z)-N’-(3-tert-butyl-2-hydroxy-5-methyl-benzylidene)acetohydrazide]
KI [1]: > 1000 µM

Cc1cc(/C=N/NC(=O)Cc2ccc(O)cc2)c(O)c(C(C)(C)C)c1 [3b, 2-(4-Hydroxyphenyl)-N’-[(E)-(3-tert-butyl-2-hydroxy-5-methylphenyl)methylidene]acetohydrazide]
pKi ([2]; uncompetitive, text b18 prints 49.1): 4.31

Cc1cc(/C=N/NC(=O)c2ccccc2)c(O)c(C(C)(C)C)c1 [4b, N’-[(E)-(3-tert-butyl-2-hydroxy-5-methylphenyl)methylidene]benzohydrazide]
pKi ([2]; competitive): 4.09

COc1cccc(C(=O)N/N=C/c2cc(C)cc(C(C)(C)C)c2O)c1 [4c, 3-Methoxy-N’-[(E)-(3-tert-butyl-2-hydroxy-5-methylphenyl)methylidene]benzohydrazide]
pKi ([2]; non-competitive): 4.76

COc1ccc(C(=O)N/N=C/c2cc(C)cc(C(C)(C)C)c2O)cc1 [4d, 4-Methoxy-N’-[(E)-(3-tert-butyl-2-hydroxy-5-methylphenyl)methylidene]benzohydrazide]
pKi ([2]; competitive): 4.59

Cc1cc(/C=N/NC(=O)c2ccccc2O)c(O)c(C(C)(C)C)c1 [4e, 2-Hydroxy-N’-[(E)-(3-tert-butyl-2-hydroxy-5-methylphenyl)methylidene]benzohydrazide]
pKi ([2]; uncompetitive): 3.82

Cc1cc(/C=N/NC(=O)c2cc(O)cc(O)c2)c(O)c(C(C)(C)C)c1 [4f, 3,5-Dihydroxy-N’-[(E)-(3-tert-butyl-2-hydroxy-5-methylphenyl)methylidene]benzohydrazide]
pKi ([2]; competitive): 4.49

CC(C)(C)c1cc(/C=N/NC(=O)c2ccccc2O)c(O)c(C(C)(C)C)c1 [4g, 2-Hydroxy-N’-[(E)-(3,5-di-tert-butyl-2-hydroxyphenyl)methylidene]benzohydrazide]
pKi ([2]; non-competitive): 4.28

CC(C)(C)c1cc(/C=N/NC(=O)c2cccc(O)c2)c(O)c(C(C)(C)C)c1 [4h, 3-Hydroxy-N’-[(E)-(3,5-di-tert-butyl-2-hydroxyphenyl)methylidene]benzohydrazide]
pKi ([2]; competitive): 4.72

CC(C)(C)c1cc(/C=N/NC(=O)c2cc(O)cc(O)c2)c(O)c(C(C)(C)C)c1 [4i, 3,5-Dihydroxy-N’-[(E)-(3,5-di-tert-butyl-2-hydroxyphenyl)methylidene]benzohydrazide]
pKi ([2]; competitive): 4.25

CC(C)(C)c1cccc(/C=N/NC(=O)c2ccccc2O)c1O [4j, 2-Hydroxy-N’-[(E)-(3-tert-butyl-2-hydroxyphenyl)methylidene]benzohydrazide]
pKi ([2]; uncompetitive): 4.18

CC(C)(C)c1cccc(/C=N/NC(=O)c2cccc(O)c2)c1O [4k, 3-Hydroxy-N’-[(E)-(3-tert-butyl-2-hydroxyphenyl)methylidene]benzohydrazide]
pKi ([2]; competitive): 4.45

CC(C)(C)c1cccc(/C=N/NC(=O)c2cc(O)cc(O)c2)c1O [4l, 3,5-Dihydroxy-N’-[(E)-(3-tert-butyl-2-hydroxyphenyl)methylidene]benzohydrazide]
pKi ([2]; competitive): 4.42

O=C(N/N=C/c1cccc(-c2ccccc2)c1O)c1ccccc1O [4m, 2-Hydroxy-N’-[(E)-(2-hydroxy-3-phenyl-phenyl)methylidene]benzohydrazide]
pKi ([2]; mixed type, competitive component): 4.58

O=C(N/N=C/c1cccc(-c2ccccc2)c1O)c1cccc(O)c1 [4n, 3-Hydroxy-N’-[(E)-(2-hydroxy-3-phenyl-phenyl)methylidene]benzohydrazide]
pKi [2, 3]: 3.86

O=C(N/N=C/c1cccc(-c2ccccc2)c1O)c1cc(O)cc(O)c1 [4o, 3,5-Dihydroxy-N’-[(E)-(2-hydroxy-3-phenyl-phenyl)methylidene]benzohydrazide]
pKi ([2]; non-competitive): 4.16

Cc1cc(/C=N/NC(=O)c2ccc3ccccc3c2O)c(O)c(C(C)(C)C)c1 [5a, N’-[(E)-(3-tert-butyl-2-hydroxy-5-methylphenyl)methylidene]-2-(1-hydroxynaphtho)hydrazide]
pKi [2, 3]: 5.10

O=C(N/N=C/c1cccc(-c2ccccc2)c1O)c1ccc2ccccc2c1O [5b, N’-[(E)-(2-hydroxy-3-phenylphenyl)methylidene]-2-(1-hydroxynaphtho)hydrazide]
pKi [2, 3]: 4.61

CC(C)(C)c1cc(/C=N/NC(=O)c2ccc3ccccc3c2O)c(O)c(C(C)(C)C)c1 [5c, N’-[(E)-(3,5-di-tert-butyl-2-hydroxy-phenyl)methylidene]-2-(1-hydroxynaphtho)hydrazide monomethanolate]
pKi ([2]; non-competitive): 4.79

CC(C)(C)c1cccc(/C=N/NC(=O)c2ccc3ccccc3c2O)c1O [5d, N’-[(E)-(3-tert-butyl-2-hydroxy-phenyl)methylidene]-2-(1-hydroxynaphtho)hydrazide]
pKi [2, 3]: 4.25
